Test results published in publication PMC10239507, “Development of allosteric and selective CDK2 inhibitors for contraception with negative cooperativity to cyclin binding” (Nature Communications, 2023).

Legend:
Assay in all cases: biochemical
[1] = target: T1, 371 kinases (kinase named in each endpoint) (Homo sapiens, UniProt O14733); details: MKK7
T1 construct: purchased Reaction Biology

[2] = target: T2, 371 kinases (kinase named in each endpoint) (Homo sapiens, UniProt O14757); details: CHK1
T2 construct: purchased Reaction Biology

[3] = target: T3, 371 kinases (kinase named in each endpoint) (Homo sapiens, UniProt O14965); details: AURORA A
T3 construct: purchased Reaction Biology

[4] = target: T4, 371 kinases (kinase named in each endpoint) (Homo sapiens, UniProt O60285); details: ARK5/NUAK1
T4 construct: purchased Reaction Biology

[5] = target: T5, 371 kinases (kinase named in each endpoint) (Homo sapiens, UniProt O75116); details: ROCK2
T5 construct: purchased Reaction Biology

[6] = target: T6, 371 kinases (kinase named in each endpoint) (Homo sapiens, UniProt P04626); details: ERBB2/HER2
T6 construct: purchased Reaction Biology

[7] = target: T7, 371 kinases (kinase named in each endpoint) (Homo sapiens, UniProt P10398); details: ARAF
T7 construct: purchased Reaction Biology

[8] = target: T8, 371 kinases (kinase named in each endpoint) (Homo sapiens, UniProt P11362); details: FGFR1
T8 construct: purchased Reaction Biology

[9] = target: T9, 371 kinases (kinase named in each endpoint) (Homo sapiens, UniProt P15056); details: BRAF
T9 construct: purchased Reaction Biology

[10] = target: T10, 371 kinases (kinase named in each endpoint) (Homo sapiens, UniProt P15735); details: PHKG2
T10 construct: purchased Reaction Biology

[11] = target: T11, 371 kinases (kinase named in each endpoint) (Homo sapiens, UniProt P16234); details: PDGFRA
T11 construct: purchased Reaction Biology

[12] = target: T12, 371 kinases (kinase named in each endpoint) (Homo sapiens, UniProt P17252); details: PKCA
T12 construct: purchased Reaction Biology

[13] = target: T13, 371 kinases (kinase named in each endpoint) (Homo sapiens, UniProt P41240); details: CSK
T13 construct: purchased Reaction Biology

[14] = target: T14, 371 kinases (kinase named in each endpoint) (Homo sapiens, UniProt P43403); details: ZAP70
T14 construct: purchased Reaction Biology

[15] = target: T15, 371 kinases (kinase named in each endpoint) (Homo sapiens, UniProt P45984); details: JNK2
T15 construct: purchased Reaction Biology

[16] = target: T16, 371 kinases (kinase named in each endpoint) (Homo sapiens, UniProt P45985); details: MKK4
T16 construct: purchased Reaction Biology

[17] = target: T17, 371 kinases (kinase named in each endpoint) (Homo sapiens, UniProt P48729); details: CK1A1
T17 construct: purchased Reaction Biology

[18] = target: T18, 371 kinases (kinase named in each endpoint) (Homo sapiens, UniProt P49674); details: CK1EPSILON
T18 construct: purchased Reaction Biology

[19] = target: T19, 371 kinases (kinase named in each endpoint) (Homo sapiens, UniProt P49759); details: CLK1
T19 construct: purchased Reaction Biology

[20] = target: T20, 371 kinases (kinase named in each endpoint) (Homo sapiens, UniProt P51451); details: BLK
T20 construct: purchased Reaction Biology

[21] = target: T21, 371 kinases (kinase named in each endpoint) (Homo sapiens, UniProt P51617); details: IRAK1
T21 construct: purchased Reaction Biology

[22] = target: T22, 371 kinases (kinase named in each endpoint) (Homo sapiens, UniProt P51955); details: NEK2
T22 construct: purchased Reaction Biology

[23] = target: T23, 371 kinases (kinase named in each endpoint) (Homo sapiens, UniProt P52333); details: JAK3
T23 construct: purchased Reaction Biology

[24] = target: T24, 371 kinases (kinase named in each endpoint) (Homo sapiens, UniProt P53667); details: LIMK1
T24 construct: purchased Reaction Biology

[25] = target: T25, 371 kinases (kinase named in each endpoint) (Homo sapiens, UniProt P53779); details: JNK3
T25 construct: purchased Reaction Biology

[26] = target: T26, 371 kinases (kinase named in each endpoint) (Homo sapiens, UniProt Q13557); details: CAMK2D
T26 construct: purchased Reaction Biology

[27] = target: T27, 371 kinases (kinase named in each endpoint) (Homo sapiens, UniProt Q15418); details: RSK1
T27 construct: purchased Reaction Biology

[28] = target: T28, 371 kinases (kinase named in each endpoint) (Homo sapiens, UniProt Q15569); details: TESK1
T28 construct: purchased Reaction Biology

[29] = target: T29, 371 kinases (kinase named in each endpoint) (Homo sapiens, UniProt Q15746); details: MLCK/MYLK
T29 construct: purchased Reaction Biology

[30] = target: T30, 371 kinases (kinase named in each endpoint) (Homo sapiens, UniProt Q92918); details: HPK1/MAP4K1
T30 construct: purchased Reaction Biology

[31] = target: T31, 371 kinases (kinase named in each endpoint) (Homo sapiens, UniProt Q96RG2); details: PASK
T31 construct: purchased Reaction Biology

[32] = target: T32, 371 kinases (kinase named in each endpoint) (Homo sapiens, UniProt Q9NR20); details: DYRK4
T32 construct: purchased Reaction Biology

[33] = target: T33, 371 kinases (kinase named in each endpoint) (Homo sapiens, UniProt Q9P1W9); details: PIM2
T33 construct: purchased Reaction Biology

[34] = target: T34, 371 kinases (kinase named in each endpoint) (Homo sapiens, UniProt Q9UM73); details: ALK
T34 construct: purchased Reaction Biology

[35] = target: T35, 371 kinases (kinase named in each endpoint) (Homo sapiens, UniProt Q9UPZ9); details: LCK2/ICK
T35 construct: purchased Reaction Biology

[36] = target: T36, 371 kinases (kinase named in each endpoint) (Homo sapiens, UniProt Q9Y6E0); details: MST3/STK24
T36 construct: purchased Reaction Biology

[37] = tested on: 371 kinases (kinase named in each endpoint); details: 10 µM

T3 sequence (O14965 whole entry): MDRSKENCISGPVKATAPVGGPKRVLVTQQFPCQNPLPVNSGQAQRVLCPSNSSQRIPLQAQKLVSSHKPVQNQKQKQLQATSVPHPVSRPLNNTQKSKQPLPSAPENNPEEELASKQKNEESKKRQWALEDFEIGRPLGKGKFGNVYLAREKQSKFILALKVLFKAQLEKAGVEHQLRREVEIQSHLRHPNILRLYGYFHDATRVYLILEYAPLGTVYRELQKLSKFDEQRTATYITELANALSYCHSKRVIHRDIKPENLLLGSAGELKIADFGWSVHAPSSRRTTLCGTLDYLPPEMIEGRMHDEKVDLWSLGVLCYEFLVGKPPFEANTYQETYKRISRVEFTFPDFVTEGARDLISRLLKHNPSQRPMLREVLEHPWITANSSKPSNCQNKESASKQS
T7 sequence (P10398 whole entry): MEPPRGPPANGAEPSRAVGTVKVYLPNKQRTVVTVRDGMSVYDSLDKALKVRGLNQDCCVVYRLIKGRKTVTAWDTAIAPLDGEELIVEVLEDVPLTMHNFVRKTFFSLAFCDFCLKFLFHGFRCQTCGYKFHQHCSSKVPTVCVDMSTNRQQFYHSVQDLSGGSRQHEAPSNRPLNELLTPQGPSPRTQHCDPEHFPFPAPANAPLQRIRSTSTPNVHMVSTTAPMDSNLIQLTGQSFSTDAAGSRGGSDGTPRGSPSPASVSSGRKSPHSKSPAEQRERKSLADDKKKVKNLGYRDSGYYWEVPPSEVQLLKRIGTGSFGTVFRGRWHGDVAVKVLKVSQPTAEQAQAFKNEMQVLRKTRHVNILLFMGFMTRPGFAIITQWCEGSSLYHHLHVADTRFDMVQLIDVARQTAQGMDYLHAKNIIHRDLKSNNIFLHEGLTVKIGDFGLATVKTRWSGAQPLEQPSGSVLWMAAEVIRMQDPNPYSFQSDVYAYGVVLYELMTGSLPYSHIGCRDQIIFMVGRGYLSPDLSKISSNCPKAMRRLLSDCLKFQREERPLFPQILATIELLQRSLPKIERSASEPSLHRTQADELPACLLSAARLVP
T29 sequence (Q15746 whole entry): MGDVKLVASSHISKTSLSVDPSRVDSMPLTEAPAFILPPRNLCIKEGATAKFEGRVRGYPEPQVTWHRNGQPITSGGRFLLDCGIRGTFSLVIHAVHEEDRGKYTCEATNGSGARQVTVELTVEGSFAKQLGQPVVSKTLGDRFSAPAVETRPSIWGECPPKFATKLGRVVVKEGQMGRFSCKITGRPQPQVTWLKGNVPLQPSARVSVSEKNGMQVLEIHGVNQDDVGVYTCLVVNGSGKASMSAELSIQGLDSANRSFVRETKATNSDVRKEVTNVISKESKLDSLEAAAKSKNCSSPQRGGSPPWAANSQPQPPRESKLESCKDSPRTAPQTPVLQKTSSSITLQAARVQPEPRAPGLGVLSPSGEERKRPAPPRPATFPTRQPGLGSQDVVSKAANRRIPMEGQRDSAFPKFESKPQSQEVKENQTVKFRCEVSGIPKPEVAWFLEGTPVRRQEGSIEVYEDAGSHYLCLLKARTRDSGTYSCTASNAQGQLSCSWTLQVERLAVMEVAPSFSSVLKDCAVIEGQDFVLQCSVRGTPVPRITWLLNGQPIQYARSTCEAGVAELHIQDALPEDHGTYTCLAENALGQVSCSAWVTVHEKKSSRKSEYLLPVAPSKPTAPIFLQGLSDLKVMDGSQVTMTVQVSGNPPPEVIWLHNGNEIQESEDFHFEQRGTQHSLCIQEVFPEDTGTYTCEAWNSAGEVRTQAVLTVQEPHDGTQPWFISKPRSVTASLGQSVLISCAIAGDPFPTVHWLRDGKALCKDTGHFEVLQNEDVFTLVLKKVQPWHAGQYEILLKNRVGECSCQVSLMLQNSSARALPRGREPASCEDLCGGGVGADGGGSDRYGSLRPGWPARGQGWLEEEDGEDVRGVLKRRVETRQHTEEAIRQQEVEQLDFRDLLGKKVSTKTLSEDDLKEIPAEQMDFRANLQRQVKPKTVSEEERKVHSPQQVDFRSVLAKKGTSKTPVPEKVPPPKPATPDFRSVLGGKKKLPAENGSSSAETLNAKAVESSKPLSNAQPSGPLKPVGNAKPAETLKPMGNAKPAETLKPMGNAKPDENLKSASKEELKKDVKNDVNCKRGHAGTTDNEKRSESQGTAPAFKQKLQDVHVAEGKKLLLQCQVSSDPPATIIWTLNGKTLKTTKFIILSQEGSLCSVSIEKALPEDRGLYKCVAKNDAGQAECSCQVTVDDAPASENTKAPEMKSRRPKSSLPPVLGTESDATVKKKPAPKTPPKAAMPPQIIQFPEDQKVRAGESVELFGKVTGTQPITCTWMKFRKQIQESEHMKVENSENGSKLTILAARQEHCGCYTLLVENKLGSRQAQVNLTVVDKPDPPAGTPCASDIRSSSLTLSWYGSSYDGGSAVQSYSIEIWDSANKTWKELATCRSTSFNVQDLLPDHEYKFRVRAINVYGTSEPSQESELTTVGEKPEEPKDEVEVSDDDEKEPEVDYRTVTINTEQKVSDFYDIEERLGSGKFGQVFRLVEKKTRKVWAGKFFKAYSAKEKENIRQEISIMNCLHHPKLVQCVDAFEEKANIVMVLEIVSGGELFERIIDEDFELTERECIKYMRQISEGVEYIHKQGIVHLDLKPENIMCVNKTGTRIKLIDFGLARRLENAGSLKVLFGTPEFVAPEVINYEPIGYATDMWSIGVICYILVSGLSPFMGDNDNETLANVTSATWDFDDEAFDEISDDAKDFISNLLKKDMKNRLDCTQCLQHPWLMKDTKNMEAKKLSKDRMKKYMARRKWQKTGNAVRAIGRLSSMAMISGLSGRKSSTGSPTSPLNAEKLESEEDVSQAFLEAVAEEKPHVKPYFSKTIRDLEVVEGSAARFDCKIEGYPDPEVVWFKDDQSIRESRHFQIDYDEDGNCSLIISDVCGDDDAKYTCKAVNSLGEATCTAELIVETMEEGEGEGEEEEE
T15 sequence (P45984 whole entry): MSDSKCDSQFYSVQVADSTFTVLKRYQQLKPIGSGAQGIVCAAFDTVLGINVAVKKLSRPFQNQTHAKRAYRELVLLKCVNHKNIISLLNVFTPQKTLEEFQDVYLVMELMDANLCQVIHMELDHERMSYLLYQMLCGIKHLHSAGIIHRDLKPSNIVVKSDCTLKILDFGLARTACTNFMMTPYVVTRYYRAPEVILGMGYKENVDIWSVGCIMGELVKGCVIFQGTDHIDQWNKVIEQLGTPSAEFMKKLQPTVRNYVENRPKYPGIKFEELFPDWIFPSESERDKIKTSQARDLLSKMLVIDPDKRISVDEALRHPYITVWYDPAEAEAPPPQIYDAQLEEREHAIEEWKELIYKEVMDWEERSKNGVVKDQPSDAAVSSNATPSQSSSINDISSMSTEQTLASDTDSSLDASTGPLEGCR
T13 sequence (P41240 whole entry): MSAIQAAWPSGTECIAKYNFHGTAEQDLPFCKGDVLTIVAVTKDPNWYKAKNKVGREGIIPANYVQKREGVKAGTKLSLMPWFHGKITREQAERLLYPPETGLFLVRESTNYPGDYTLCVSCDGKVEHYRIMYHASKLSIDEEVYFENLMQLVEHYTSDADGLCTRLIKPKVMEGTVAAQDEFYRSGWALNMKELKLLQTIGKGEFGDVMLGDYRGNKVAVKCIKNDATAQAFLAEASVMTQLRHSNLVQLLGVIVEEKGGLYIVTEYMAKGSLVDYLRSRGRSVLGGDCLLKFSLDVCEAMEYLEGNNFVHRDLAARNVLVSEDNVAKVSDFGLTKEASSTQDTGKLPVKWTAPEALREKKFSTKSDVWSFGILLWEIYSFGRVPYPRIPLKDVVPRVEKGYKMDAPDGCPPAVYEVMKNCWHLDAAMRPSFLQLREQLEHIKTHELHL
T20 sequence (P51451 whole entry): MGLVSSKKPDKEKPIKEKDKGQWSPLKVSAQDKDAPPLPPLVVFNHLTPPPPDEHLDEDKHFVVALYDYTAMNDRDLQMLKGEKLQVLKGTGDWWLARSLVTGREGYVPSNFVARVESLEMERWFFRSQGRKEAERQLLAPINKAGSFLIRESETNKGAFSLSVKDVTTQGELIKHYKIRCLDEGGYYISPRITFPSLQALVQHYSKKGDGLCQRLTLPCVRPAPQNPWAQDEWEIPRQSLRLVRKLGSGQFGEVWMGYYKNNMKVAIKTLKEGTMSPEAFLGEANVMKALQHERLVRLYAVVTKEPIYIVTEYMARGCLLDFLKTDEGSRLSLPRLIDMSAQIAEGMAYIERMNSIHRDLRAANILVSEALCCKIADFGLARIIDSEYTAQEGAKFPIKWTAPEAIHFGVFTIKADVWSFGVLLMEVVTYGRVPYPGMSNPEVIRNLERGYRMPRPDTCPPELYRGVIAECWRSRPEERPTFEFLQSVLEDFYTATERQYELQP

## O=C(O)c1cc(C(F)(F)F)ccc1NCCc1c[nH]c2cc(Br)ccc12 [Compound 5, 2-((2-(6-Bromo-1H-indol-3-yl)ethyl)amino)−5-(trifluoromethyl)benzoic Acid]
[1]
  activity at 10 µM: 90.6 ± 0.3%
[2]
  activity at 10 µM: 95.2 ± 1.2%
[3]
  activity at 10 µM: 75.2 ± 1.8%
[4]
  activity at 10 µM: 75.5 ± 0.1%
[5]
  activity at 10 µM: 90 ± 2%
[6]
  activity at 10 µM: 78 ± 0.2%
[7]
  activity at 10 µM: 91.1 ± 0.8%
[8]
  activity at 10 µM: 102.6 ± 0.3%
[9]
  activity at 10 µM: 98.7 ± 0.5%
[10]
  activity at 10 µM: 106.5 ± 0.1%
[11]
  activity at 10 µM: 86.9 ± 0.2%
[12]
  activity at 10 µM: 123 ± 5.3%
[13]
  activity at 10 µM: 100.9 ± 0.9%
[14]
  activity at 10 µM: 95.1 ± 1.6%
[15]
  activity at 10 µM: 89.6 ± 0.4%
[16]
  activity at 10 µM: 115 ± 4.5%
[17]
  activity at 10 µM: 91.2 ± 0.3%
[18]
  activity at 10 µM: 60.1 ± 1.8%
[19]
  activity at 10 µM: 109.3 ± 0.4%
[20]
  activity at 10 µM: 92.7 ± 1.3%
[21]
  activity at 10 µM: 102 ± 2.5%
[22]
  activity at 10 µM: 50.8 ± 1.3%
[23]
  activity at 10 µM: 94.7 ± 0.1%
[24]
  activity at 10 µM: 84.2%
[25]
  activity at 10 µM: 90.9 ± 0.3%
[26]
  activity at 10 µM: 78.3 ± 3.4%
[27]
  activity at 10 µM: 83.1 ± 2.8%
[28]
  activity at 10 µM: 82.4 ± 1.3%
[29]
  activity at 10 µM: 57.6 ± 2%
[30]
  activity at 10 µM: 77.2 ± 0.7%
[31]
  activity at 10 µM: 95.2 ± 2.9%
[32]
  activity at 10 µM: 96.9 ± 2.5%
[33]
  activity at 10 µM: 92.4 ± 0.6%
[34]
  activity at 10 µM: 93.8 ± 0.7%
[35]
  activity at 10 µM: 98.2 ± 1.3%
[36]
  activity at 10 µM: 104 ± 1.9%
[37]
  inhibition of any kinase: ≤ 80%
  share of the 371 kinases tested with >50% inhibition: 4%
[37]; LYN B
  % Activity: 93.2 ± 0.3%
[37]; PKCB2
  % Activity: 100.1 ± 1.4%
[37]; PKG1B
  % Activity: 78.0 ± 0.4%
